Test results: US8822485B2, “Amino heteroaryl compounds as beta-secretase modulators and methods of use” (Amgen Inc., priority 2010, dated 2014)

Legend:
BACE1 = BACE1 (Homo sapiens, UniProt P56817); test: In vitro enzymatic BACE FRET assay; format: biochemical; conditions: IC50 range class; 0.2 nM enzyme, 50 nM FRET substrate, pH 4.2
Experimental: In Vitro Enzymatic BACE FRET (Fluorescence Resonance Energy Transfer) Assay (Enzyme Assay Data in Table 1)
The assay buffer used in this screen is 0.05 M acetate, pH 4.2, 10% DMSO final, 100 uM genapol (which is a nonionic detergent, below its Critical Micelle Concentration). The Beta Secretase enzyme (0.2 nM) is pre-incubated for one hour with inhibitors, typically in about 1 uL of DMSO according to a serial dilution, are added thereto. The assay is effectively started by the addition of FRET substrate (50 nM) and the combination is incubated for one hour. The FRET assay is terminated with by addition of Tris buffer, which raises the pH to neutrality, and the fluorescence is determined. The FRET substrate is a peptide with commercially available fluorophore and quencher, on opposite sides of the BACE cleavage site. Proteolytic cleavage of the FRET substrate releases quenching of fluorescence (excitation […] and […]).
Of the compounds tested, the in-vitro BACE FRET enzyme data for each of Examples 1-33, where available at the time of filing this application, is provided in Table 1.

[1] = test system: Aβ40 in conditioned medium of cells stably expressing Amyloid Precursor Protein (APP) (HEK cell); test: In vitro BACE cell-based assay (HEK cell assay, Aβ40 sandwich ELISA); conditions: Homo sapiens, HEK293; IC50 range class; inhibition of Aβ40 after 24 h incubation
Experimental: In Vitro BACE Cell-Based Assay:
The cell-based assay measures inhibition or reduction of Aβ40 □ in conditioned medium of test compound treated cells expressing amyloid precursor protein.
Cells stably expressing Amyloid Precursor Protein (APP) were plated at a density of 40K cells/well in 96 well plates (Costar). The cells were cultivated for 24 hours at 37° C. and 5% CO2 in DMEM supplemented with 10% FBS. The test compounds were then added to cells in 10-point dose response concentrations with the starting concentration being either 100 μM or 10 μM. The compounds were diluted from stock solutions in DMSO and the final DMSO concentration of the test compounds on cells was 0.1%. After 24 h of incubation with the test compounds the supernatant conditioned media was collected and the Aβ 40 levels were determined using a sandwich ELISA. The IC50 of the compound was calculated from the percent of control or percent inhibition of Aβ40 as a function of the concentration of the test compound.
The sandwich ELISA to detect Aβ 40 was performed in 96 well microtiter plates, which were pre-treated with goat anti-rabbit IgG (Pierce). The capture and detecting antibody pair that were used to detect Aβ 40 from cell supernatants were affinity purified pAb40 (Biosource) and biotinylated 6E10 (Signet Labs Inc.), respectively. The optimal concentration for the pAb40 antibody was 3 μg/ml in Superblock/TBS (Pierce) that was supplemented with 0.05% Tween 20 (Sigma). Optimal concentration for the detection antibody 6E10-biotinylated was 0.5 μg/ml in Superblock/TBS (Pierce) that had been supplemented with 2% normal goat serum and 2% normal mouse serum.
Cellular supernatants were incubated with the capture antibody for 3 h at 4° C., followed by 3 wash steps in TBS-tween (0.05%). The detecting antibody incubation was for 2 h at 4° C., again followed by the wash steps as described previously. The final readout of the ELISA is Time-Resolved Fluorescence (counts per minute) using Delfia reagents Streptavidin-Europium and Enhancement solutions (Perkin Elmer) and the Victor 2 multilabel counter (Perkin Elmer).
Of the compounds tested, the cell based assay data for each of Examples 1-33, where available at the time of filing this application, is provided in Table 1.

Chain of BACE1 (P56817 46-501, species assumed): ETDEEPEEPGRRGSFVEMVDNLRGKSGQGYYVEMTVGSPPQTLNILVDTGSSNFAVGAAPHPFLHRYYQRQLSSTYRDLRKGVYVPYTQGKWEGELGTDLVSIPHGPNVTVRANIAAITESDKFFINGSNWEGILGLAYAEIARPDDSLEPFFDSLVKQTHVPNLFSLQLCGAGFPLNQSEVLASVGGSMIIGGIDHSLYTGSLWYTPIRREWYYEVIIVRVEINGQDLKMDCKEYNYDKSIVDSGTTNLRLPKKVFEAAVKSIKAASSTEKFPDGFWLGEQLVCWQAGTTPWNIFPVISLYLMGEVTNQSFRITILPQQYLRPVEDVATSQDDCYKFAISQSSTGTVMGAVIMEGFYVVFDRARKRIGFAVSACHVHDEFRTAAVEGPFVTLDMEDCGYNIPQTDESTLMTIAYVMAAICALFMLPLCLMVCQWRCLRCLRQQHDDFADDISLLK

Structure (SMILES) | IC50 (BACE1) [µM] | IC50 [1] [µM]
Cc1cccc(C(=O)N2CCCC2C)c1-c1ccc2nc(N)c(CCc3cncnc3)cc2c1 (racemic) [Example 32, (±)-(2-(2-amino-3-(2-(pyrimidin-5-yl)ethyl)quinolin-6-yl)-3-methylphenyl)(2-methylpyrrolidin-1-yl)methanone] | < 0.1 | < 0.5
Cc1ccccc1-c1ccc2nc(N)c(C3OCCCC3c3cc(CC(C)(C)C)ncn3)cc2c1 (single isomer, unassigned) [Example 7] | < 0.1 | 1 to 5
Cc1ccccc1-c1ccc2nc(N)c(C3CCCC3c3cc(C4CCCC4)ncn3)cc2c1 (centres unmarked) [Example 1, 3-(2-(6-cyclopentylpyrimidin-4-yl)cyclopentyl)-6-o-tolylquinolin-2-amine] | < 0.1 | > 5
Cc1ccccc1-c1ccc2nc(N)c(C=Cc3cncc(C4=CCCCC4)c3)cc2c1 [Example 2, 3-(2-(5-cyclohexenylpyridin-3-yl)vinyl)-6-o-tolylquinolin-2-amine] | 0.1 to 1 | > 5
Cc1ccccc1-c1ccc2nc(N)c(CCc3cncc(C4CCCCC4)c3)cc2c1 [Example 3, 3-(2-(5-cyclohexylpyridin-3-yl)ethyl)-6-o-tolylquinolin-2-amine] | < 0.1 | > 5
CCc1cncc(CCc2cc3cc(-c4ccccc4C)ccc3nc2N)c1 [Example 5, 3-(2-(5-ethylpyridin-3-yl)ethyl)-6-o-tolylquinolin-2-amine] | 1 to 5 | 1 to 5
Cc1cccnc1-c1ccc2nc(N)c(CCc3cc(CC(C)(C)C)ncn3)cc2c1 [Example 6, 6-(3-methylpyridin-2-yl)-3-(2-(6-neopentylpyrimidin-4-yl)ethyl)quinolin-2-amine] | 0.1 to 1 | 1 to 5
Cc1ccccc1-c1ccc2nc(N)c(CCc3cc(C(C)(C)C)ncn3)cc2c1 [Example 8, 3-(2-(6-tert-butylpyrimidin-4-yl)ethyl)-6-o-tolylquinolin-2-amine] | < 0.1 | 1 to 5
Cc1ccccc1-c1ccc2nc(N)c(CC(C)c3cc(CC(C)(C)C)ncn3)cc2c1 (centres unmarked) [Example 9, 3-(2-(6-neopentylpyrimidin-4-yl)propyl)-6-o-tolylquinolin-2-amine] | < 0.1 | 0.5 to 1
CCc1cc(C(C)Cc2cc3cc(-c4ccccc4C)ccc3nc2N)ncn1 (centres unmarked) [Example 10, 3-(2-(6-ethylpyrimidin-4-yl)propyl)-6-o-tolylquinolin-2-amine] | 0.1 to 1 | 1 to 5
Cc1ccccc1-c1ccc2nc(N)c(COc3cc(C(F)(F)F)ncn3)cc2c1 [Example 11, 6-o-tolyl-3-((6-(trifluoromethyl)pyrimidin-4-yloxy)methyl)quinolin-2-amine] | 0.1 to 1 | > 5
Cc1ccccc1-c1ccc2nc(N)c(CC(C)c3cc(C4CCCC4)ncn3)cc2c1 (centres unmarked) [Example 13, 3-(2-(6-cyclopentylpyrimidin-4-yl)propyl)-6-o-tolylquinolin-2-amine] | < 0.1 | 1 to 5
CCc1cc(OCc2cc3cc(-c4ccccc4C)ccc3nc2N)ncn1 [Example 14, 6-o-tolyl-3-((6-ethylpyrimidin-4-yloxy)methyl)quinolin-2-amine] | > 5 | > 5
Cc1cccnc1-c1ccc2nc(N)c(CC(C)c3cc(CC(C)(C)C)ncn3)cc2c1 (centres unmarked) [Example 15, 6-(3-methylpyridin-2-yl)-3-(2-(6-neopentylpyrimidin-4-yl)propyl)quinolin-2-amine] | 0.1 to 1 | 0.5 to 1
Cc1cccnc1-c1ccc2nc(N)c(CCc3cc(C(C)(C)C)ncn3)cc2c1 [Example 16, 3-(2-(6-tert-butylpyrimidin-4-yl)ethyl)-6-(3-methylpyridin-2-yl)quinolin-2-amine] | 0.1 to 1 | 1 to 5
Cc1ccccc1-c1ccc2nc(N)c(CCc3cc4ccccc4[nH]3)cc2c1 [Example 17, 3-(2-(1H-indol-2-yl)ethyl)-6-o-tolylquinolin-2-amine] | 1 to 5 | 0.5 to 1

Structure (SMILES) | IC50 (BACE1) [µM] | IC50 [1] [µM]
Cc1ccccc1-c1ccc2nc(N)c(CCc3cncc(CC(C)C)c3)cc2c1 [Example 18, 3-(2-(5-isobutylpyridin-3-yl)ethyl)-6-o-tolylquinolin-2-amine] | 0.1 to 1 | 1 to 5
Cc1ccccc1-c1ccc2nc(N)c(CCc3cnn(Cc4ccccc4)c3)cc2c1 [Example 19, 3-(2-(1-benzyl-1H-pyrazol-4-yl)ethyl)-6-o-tolylquinolin-2-amine] | 0.1 to 1 | 1 to 5
Cc1cccnc1-c1ccc2nc(N)c(CCc3cc(C4CCOCC4)ncn3)cc2c1 [Example 20, 6-(3-methylpyridin-2-yl)-3-(2-(6-(tetrahydro-2H-pyran-4-yl)pyrimidin-4-yl)ethyl)quinolin-2-amine] | 0.1 to 1 | 1 to 5
Cc1ccccc1-c1ccc2nc(N)c(CCc3cncc(CC(C)(C)C)c3)cc2c1 [Example 21, 3-(2-(5-neopentylpyridin-3-yl)ethyl)-6-o-tolylquinolin-2-amine] | 0.1 to 1 | > 5
Cc1ccccc1-c1ccc2nc(N)c(CCc3cncc(CCC(C)(C)C)c3)cc2c1 [Example 22, 3-(2-(5-(3,3-dimethylbutyl)pyridin-3-yl)ethyl)-6-o-tolylquinolin-2-amine] | 0.1 to 1 | > 5
Cc1ccccc1-c1ccc2nc(N)c(CCc3cccc(C(F)(F)F)c3)cc2c1 [Example 23, 6-o-tolyl-3-(3-(trifluoromethyl)phenethyl)quinolin-2-amine] | 1 to 5 | > 5
Cc1ccccc1-c1ccc2nc(N)c(C=Cc3cnn(C4CCCCC4)c3)cc2c1 [Example 24, 3-(2-(1-cyclohexyl-1H-pyrazol-4-yl)vinyl)-6-o-tolylquinolin-2-amine] | 1 to 5 | > 5
Cc1ccccc1-c1ccc2nc(N)c(CCc3cnn(C4CCCCC4)c3)cc2c1 [Example 25, 3-(2-(1-cyclohexyl-1H-pyrazol-4-yl)ethyl)-6-o-tolylquinolin-2-amine] | < 0.1 | 1 to 5
Cc1ccccc1-c1ccc2nc(N)c(CC(C)c3cncc(C4CCCCO4)c3)cc2c1 (centres unmarked) [Example 26, 3-(2-(5-(tetrahydro-2H-pyran-2-yl)pyridin-3-yl)propyl)-6-o-tolylquinolin-2-amine] | 0.1 to 1 | 1 to 5
Cc1ccccc1-c1ccc2nc(N)c(CC(C)c3cncc(C4CCCCC4)c3)cc2c1 (centres unmarked) [Example 27, 3-(2-(5-cyclohexylpyridin-3-yl)propyl)-6-o-tolylquinolin-2-amine] | < 0.1 | > 5
Cc1ccccc1-c1ccc2nc(N)c(CCc3cnco3)cc2c1 [Example 28, 3-(2-(oxazol-5-yl)ethyl)-6-o-tolylquinolin-2-amine] | 1 to 5 | > 5
Cc1ccccc1-c1ccc2nc(N)c(CCc3ccccn3)cc2c1 [Example 29, 3-(2-(pyridin-2-yl)ethyl)-6-o-tolylquinolin-2-amine] | 1 to 5 | > 5
Cc1ccccc1-c1ccc2nc(N)c(CC(C)c3cncc(C4CCCC4)c3)cc2c1 (centres unmarked) [Example 30, 3-(2-(5-cyclopentylpyridin-3-yl)propyl)-6-o-tolylquinolin-2-amine] | < 0.1 | 1 to 5
Cc1ccccc1-c1ccc2nc(N)c(CCc3cncc(C4CCCCO4)c3)cc2c1 (centres unmarked) [Example 31, 3-(2-(5-(tetrahydro-2H-pyran-2-yl)pyridin-3-yl)ethyl)-6-o-tolylquinolin-2-amine] | 0.1 to 1 | 1 to 5
Cc1cccc(C(=O)N2CCCC2)c1-c1ccc2nc(N)c(CCc3cncnc3)cc2c1 [Example 33, (2-(2-amino-3-(2-(pyrimidin-5-yl)ethyl)quinolin-6-yl)-3-methylphenyl)(pyrrolidin-1-yl)methanone] | < 0.1 | < 0.5
